According to BindingDB's records for doi:10.1016/s0960-894x(03)00356-1 (Abbott Laboratories, 2003):
pKi: −log10 of the molar value.

Molecular target: Histamine H3 receptor (Rattus norvegicus) (UniProt Q9QYN8)
Assay: Compound was tested for its binding affinity towards rat cortical Histamine H3L receptor

Sequence of Histamine H3 receptor (Rattus norvegicus) (Q9QYN8 whole entry, looked up): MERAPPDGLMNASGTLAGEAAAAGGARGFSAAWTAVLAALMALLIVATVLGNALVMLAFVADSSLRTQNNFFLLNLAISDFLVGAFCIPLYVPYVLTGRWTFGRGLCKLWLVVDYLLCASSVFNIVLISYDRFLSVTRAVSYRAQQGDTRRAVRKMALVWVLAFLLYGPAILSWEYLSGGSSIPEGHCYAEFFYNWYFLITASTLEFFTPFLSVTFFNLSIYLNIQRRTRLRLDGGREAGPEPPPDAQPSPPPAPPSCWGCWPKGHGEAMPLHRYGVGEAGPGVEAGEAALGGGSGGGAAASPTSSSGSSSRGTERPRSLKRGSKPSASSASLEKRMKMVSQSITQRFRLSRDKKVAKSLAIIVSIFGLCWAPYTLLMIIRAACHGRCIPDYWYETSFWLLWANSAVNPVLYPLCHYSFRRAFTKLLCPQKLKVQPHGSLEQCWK

A pKi of 6.80 was found for `CN(C)CCCNc1c2c(nc3c1CCCC3)CCCCC2` in this work.
